US11224601B1, “Compounds that inhibits MCL-1 protein” (priority 2017, dated 2022)
Read-outs that look alike come from different tables or passages of the source.

Columns and labels:
[1] = tested on: OPM-2 human multiple myeloma cell line; experiment: Cell Viability Assay (OPM-2 10 FBS), CellTiter-Glo; assay type: cell-based
Protocol: Cell Viability Assay (OPM-2 10 FBS)
The human multiple myeloma cell line, OPM-2, was cultured in complete growth medium containing RPMI 1640 and 10% fetal bovine serum (FBS). Cells were seeded into 384-well plates at 3000 cells/well density in complete growth medium containing 10% FBS, and incubated for 16 h with serially diluted test compounds in a 37° C. incubator with 5% CO2. Cell viability was tested using CellTiter-Glo® assay (Promega, Madison, Wis.) according to the manufacturer recommendations. Luminescence was determined using an EnVision® Multilabel plate reader 25 min after the addition of detection reagent. IC50 values were then calculated with Xlfit using a logistical 4-parameter fit model in GraphPad Prism (GraphPad Software, San Diego, Calif.) or in Genedata Screener® (Genedata, Basel, Switzerland).

OPM-2 Luc cells = experiment: Tumor Pharmacodynamics (PD) model; assay type: in vivo; conditions: dosed orally to female athymic nude mice inoculated with OPM-2 Luc cells; compared with Reference Compound 1
Excerpt: Tumor Pharmacodynamics (PD)
FIGS. 1-7 illustrate the PD results of the cited Examples. The Reference Compound 1, an internal Amgen MC1-1 inhibitor compound made by one of the general schemes outlined in U.S. Pat. No. 9,562,061, herein incorporated by reference, is (1S,3′R,6′R,7′S,8′E,12′R)-6-chloro-12′-ethyl-7′-methoxy-3,4-dihydro-2H,15′H-spiro[naphthalene-1,22′-[20]oxa[13]thia[1,14]diazatetracyclo[14.7.2.0˜3,6˜.0˜19,24˜]pentacosa[8,16,18,24]tetraen]-15′-one 13′,13′-dioxide

[2] = molecular target: recombinant human Mcl-1 (Mcl-1/Bim interaction) (Homo sapiens (Human), UniProt Q07820); experiment: biochemical; assay type: binding; conditions: cell free Mcl-1:Bim TR-FRET
Chain of recombinant human Mcl-1 (Mcl-1/Bim interaction) (Q07820 171-327): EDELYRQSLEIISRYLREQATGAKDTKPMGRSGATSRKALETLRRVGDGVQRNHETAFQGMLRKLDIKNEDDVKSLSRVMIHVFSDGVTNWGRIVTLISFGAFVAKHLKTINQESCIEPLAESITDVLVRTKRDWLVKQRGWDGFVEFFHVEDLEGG
Protocol: Cell free Mcl-1:Bim Affinity Assay (Mcl-1 HTRF)
The inhibition of the Mcl-1/Bim interaction was measured using a time-resolved fluorescence resonance energy transfer (TR-FRET) assay. The recombinant human Mcl-1 (C-terminally 6×His tagged Mcl-1 containing residues 171-327) was generated at Amgen Inc (Thousand Oaks, Calif.). A biotinylated peptide derived from human Bim (residues 51-76) was purchased from CPC Scientific (San Jose, Calif.). The TR-FRET assay was conducted in a 384-well white OptiPlate™ (PerkinElmer, Waltham, Mass.) in a total volume of 40 μL. The reaction mixture contained 0.1 nM Mcl-1(171-327), 0.05 nM biotin-Bim(51-76), 0.05 nM LANCE® Eu-W1024 Anti-6×His (PerkinElmer), 0.072 nM Streptavidin-Xlent (Cisbio, Bedford, Mass.), and serially diluted test compounds in the binding buffer of 20 mM Hepes, pH 7.5, 150 mM NaCl, 0.016 mM Brij® 35, and 1 mM dithiothreitol. Test compounds were pre-incubated with Mcl-1(171-327) and biotin-Bim (51-76) for 60 min before addition of the detection mixture (LANCE® Eu-W1024 Anti-6×His and Streptavidin-Xlent). The reaction plates were further incubated overnight and then were read on an Envision® multimode reader (PerkinElmer). Fluorescence signals were measured at 620 nm (40-nm bandwidth) and 665 nm (7.5-nm bandwidth) with a 60 μs delay after excitation at 320 nm (75-nm bandwidth). The signal ratio at 665/620 nm corresponded to the Mcl-1/Bim interaction and was used in all data analyses. The IC50 values of test compounds were determined from duplicate data by analyzing competition curves using a four-parameter sigmoidal model in GraphPad Prism (GraphPad Software, San Diego, Calif.) or in Genedata Screener® (Genedata, Basel, Switzerland).

[3] = Homo sapiens, OPM-2, 16 h, read-out: OPM-2 10% FBS IC50 IP (μM), OPM-2 cells, 10% FBS, 16 h, CellTiter-Glo
[4] = Homo sapiens, OPM-2, 16 h, read-out: OPM-2 10% FBS IC50 IP, OPM-2 cells, 10% FBS, 16 h, CellTiter-Glo

Compound	IC50 [1, 3]	IC50 ([2]; read-out: Mcl-1 HTRF IC50)	IC50 ([2]; read-out: Mel-1 HTRF IC50)	further results
CCO[C@]1(CN2CCN3CCOC[C@@H]3C2)/C=C/C[C@H](C)[C@@H](C)S(=O)(=O)NC(=O)c2ccc3c(c2)N(C[C@@H]2CC[C@H]21)C[C@@]1(CCCc2cc(Cl)ccc21)CO3 [Example 1, (1S,3′R,6′R,7′R,8′E,11′S,12′R)-6-chloro-7′-ethoxy-7′-((9aS)-hexahydropyrazino[2,1-c][1,4]oxazin-8(1H)-ylmethyl)-11′,12′-dimethyl-3,4-dihydro-2H,15′H-spiro[naphthalene-1,22′-[20]oxa[13]thia[1,14]diazatetracyclo[14.7.2.0˜3,6˜.0˜19,24˜]pentacosa[8,16,18,24]tetraen]-15′-one 13′,13′-dioxide]	0.085 µM			in vivo efficacy in a tumor PD model relative to Reference Compound 1 (OPM-2 Luc cells): superior in vivo efficacy
CO[C@]1(CN2CCN(C3COC3)CC2)/C=C/C[C@H](C)[C@@H](C)S(=O)(=O)NC(=O)c2ccc3c(c2)N(C[C@@H]2CC[C@H]21)C[C@@]1(CCCc2cc(Cl)ccc21)CO3 [Example 3, (1S,3′R,6′R,7′R,8′E,11′S,12′R)-6-chloro-7′-methoxy-11′,12′-dimethyl-7′-((4-(3-oxetanyl)-1-piperazinyl)methyl)-3,4-dihydro-2H,15′H-spiro[naphthalene-1,22′-[20]oxa[13]thia[1,14]diazatetracyclo[14.7.2.0˜3,6˜.0˜19,24˜]pentacosa[8,16,18,24]tetraen]-15′-one 13′,13′-dioxide]	0.06 µM			in vivo efficacy in a tumor PD model relative to Reference Compound 1 (OPM-2 Luc cells): superior in vivo efficacy
CO[C@]1(CN2CCN3CCOC[C@@H]3C2)/C=C/C[C@H](C)[C@@H](C)S(=O)(=O)NC(=O)c2ccc3c(c2)N(C[C@@H]2CC[C@H]21)C[C@@]1(CCCc2cc(Cl)ccc21)CO3 [Example 4, (1S,3′R,6′R,7′R,8′E,11′S,12′R)-6-chloro-7′-((9aS)-hexahydropyrazino[2,1-c][1,4]oxazin-8(1H)-ylmethyl)-7′-methoxy-11′,12′-dimethyl-3,4-dihydro-2H,15′H-spiro[naphthalene-1,22′-[20]oxa[13]thia[1,14]diazatetracyclo[14.7.2.0˜3,6˜.0˜19,24˜]pentacosa[8,16,18,24]tetraen]-15′-one 13′,13′-dioxide]	0.094 µM			in vivo efficacy in a tumor PD model relative to Reference Compound 1 (OPM-2 Luc cells): superior in vivo efficacy
CO[C@]1(CN2CCN3CCCC[C@@H]3C2)/C=C/C[C@H](C)[C@@H](CCO[Si](c2ccccc2)(c2ccccc2)C(C)(C)C)S(=O)(=O)NC(=O)c2ccc3c(c2)N(C[C@@H]2CC[C@H]21)C[C@@]1(CCCc2cc(Cl)ccc21)CO3 [Example 359, (1S,3′R,6′R,7′R,8′E,11′S,12′R)-6-chloro-7′-methoxy-11′-methyl-12′-(2-(((2-methyl-2-propanyl)(diphenyl)silyl)oxy)ethyl)-7′-((9aR)-octahydro-2H-pyrido[1,2-a]pyrazin-2-ylmethyl)-3,4-dihydro-2H,15′H-spiro[naphthalene-1,22′-[20]oxa[13]thia[1,14]diazatetracyclo[14.7.2.0˜3,6˜.0˜19,24˜]pentacosa[8,16,18,24]tetraen]-15′-one 13′,13′-dioxide]	> 33.3 µM	2.08 nM		
CO[C@@]1(CN2CCN3CCOC[C@@H]3C2)/C=C/C[C@H](C)[C@H]2CCN(C(=O)c3ccc4c(c3)N(C[C@@H]3CC[C@H]31)C[C@@]1(CCCc3cc(Cl)ccc31)CO4)S2(=O)=O [Example 364, (1S,3′R,6′R,7′S,8′E,11′S,12′R)-6-chloro-7′-((9aS)-hexahydropyrazino[2,1-c][1,4]oxazin-8(1H)-ylmethyl)-7′-methoxy-11′-methyl-3,4-dihydro-2H,16′H-spiro[naphthalene-1,23′-[21]oxa[27]thia[1,15]diazapentacyclo[15.7.2.1˜12,15˜.0˜3,6˜.0˜20,25˜]heptacosa[8,17,19,25]tetraen]-16′-one 27′,27′-dioxide]	> 33.3 µM	192 nM		
CO[C@@]1(CN2CCN3CCOC[C@@H]3C2)/C=C/C[C@H](C)[C@@H](CCCl)S(=O)(=O)NC(=O)c2ccc3c(c2)N(C[C@@H]2CC[C@H]21)C[C@@]1(CCCc2cc(Cl)ccc21)CO3 [Example 366, (1S,3′R,6′R,7′S,8′E,11′S,12′R)-6-chloro-12′-(2-chloroethyl)-7′-((9aS)-hexahydropyrazino[2,1-c][1,4]oxazin-8(1H)-ylmethyl)-7′-methoxy-11′-methyl-3,4-dihydro-2H,15′H-spiro[naphthalene-1,22′-[20]oxa[13]thia[1,14]diazatetracyclo[14.7.2.0˜3,6˜.0˜19,24˜]pentacosa[8,16,18,24]tetraen]-15′-one 13′,13′-dioxide]	0.133 µM	0.248 nM		
CO[C@]1(CN2CCN3CCCC[C@@H]3C2)/C=C/C[C@H](C)[C@@H](CCN(C)C)S(=O)(=O)NC(=O)c2ccc3c(c2)N(C[C@@H]2CC[C@H]21)C[C@@]1(CCCc2cc(Cl)ccc21)CO3 [Example 367, (1S,3′R,6′R,7′R,8′E,11′S,12′R)-6-chloro-12′-(2-(dimethylamino)ethyl)-7′-methoxy-11′-methyl-7′-((9aR)-octahydro-2H-pyrido[1,2-a]pyrazin-2-ylmethyl)-3,4-dihydro-2H,15′H-spiro[naphthalene-1,22′-[20]oxa[13]thia[1,14]diazatetracyclo[14.7.2.0˜3,6˜.0˜19,24˜]pentacosa[8,16,18,24]tetraen]-15′-one 13′,13′-dioxide]	0.273 µM	0.201 nM		
CCO[C@]1(CN2CCN3CCOC[C@@H]3C2)CCC[C@H](C)[C@@H](CCOC)S(=O)(=O)NC(=O)c2ccc3c(c2)N(C[C@@H]2CC[C@H]21)C[C@@]1(CCCc2ccccc21)CO3 [Example 517, (1S,3′R,6′R,7′R,11′S,12′R)-7′-ethoxy-7′-((9aS)-hexahydropyrazino[2,1-c][1,4]oxazin-8(1H)-ylmethyl)-12′-(2-methoxyethyl)-11′-methyl-3,4-dihydro-2H,15′H-spiro[naphthalene-1,22′-[20]oxa[13]thia[1,14]diazatetracyclo[14.7.2.0˜3,6˜.0˜19,24˜]pentacosa[16,18,24]trien]-15′-one 13′,13′-dioxide]	0.252 µM	0.259 nM		
CO[C@@]1(C#CCCN2CCS(=O)(=O)CC2)/C=C/C[C@H](C)[C@@H](C)S(=O)(=O)NC(=O)c2ccc3c(c2)N(C[C@@H]2CC[C@H]21)C[C@@]1(CCCc2cc(Cl)ccc21)CO3 [Example 100456, (1S,3′R,6′R,7′S,8′E,11′S,12′R)-6-chloro-7′-(4-(1,1-dioxido-4-thiomorpholinyl)-1-butyn-1-yl)-7′-methoxy-11′,12′-dimethyl-3,4-dihydro-2H,15′H-spiro[naphthalene-1,22′-[20]oxa[13]thia[1,14]diazatetracyclo [14.7.2.0~3,6~.0~19,24~]pentacosa[8,16,18,24]tetraen]-15′-one 13′,13′-dioxide]			0.565 nM	IC50 [1, 4]: 1.23 µM
CO[C@@]1(C#CCCc2ccncn2)/C=C/C[C@H](C)[C@@H](C)S(=O)(=O)NC(=O)c2ccc3c(c2)N(C[C@@H]2CC[C@H]21)C[C@@]1(CCCc2cc(Cl)ccc21)CO3 [Example 100519, (1S,3′R,6′R,7′S,8′E,11′S,12′R)-6-chloro-7′-methoxy-11′,12′-dimethyl-7′-(4-(4-pyrimidinyl)-1-butyn-1-yl)-3,4-dihydro-2H,15′H-spiro[naphthalene-1,22′-[20]oxa[13]thia[1,14]diazatetracyclo [14.7.2.0~3,6~.0~19,24~]pentacosa[8,16,18,24]tetraen]-15′-one 13′,13′-dioxide]			0.175 nM	IC50 [1, 4]: 0.138 µM
CO[C@@]1(CC(=O)NC[C@@H](O)C(F)(F)F)/C=C/C[C@H](C)[C@@H](C)S(=O)(=O)NC(=O)c2ccc3c(c2)N(C[C@@H]2CC[C@H]21)C[C@@]1(CCCc2cc(Cl)ccc21)CO3.CO[C@@]1(CC(=O)NC[C@H](O)C(F)(F)F)/C=C/C[C@H](C)[C@@H](C)S(=O)(=O)NC(=O)c2ccc3c(c2)N(C[C@@H]2CC[C@H]21)C[C@@]1(CCCc2cc(Cl)ccc21)CO3 [Example 100563]			0.065 nM	IC50 [1, 4]: 0.51 µM
(1S,3′R,6′R,7′R,11′S,12′R)-6-chloro-7′- hydroxy-11′,12′-dimethyl-7′-(1-methyl-4- piperidinyl)-3,4-dihydro-2H,15′H- spiro[naphthalene-1,22′- [20]oxa[13]thia[1,14]diazatetracyclo [14.7.2.0~3,6~.0~19,24~]pentacosa[16,18,24] trien]-15′-one 13′,13′-dioxide [Example 100382]			0.471 nM	IC50 ([1]; read-out: OPM-2 10% FBS IC50 IP, OPM-2 cells, 10% FBS, 16 h, CellTiter-Glo): 0.312 µM
